# Measured values from patent publication US20260108547A1, “LEVERAGING L-FUCOSE-MEDIATED SIGNALING TO INDUCE MONOCYTE-DERIVED DENDRITIC CELL POLARIZATION” (H. LEE MOFFITT CANCER CENTER AND RESEARCH INSTITUTE, INC., priority 2022, published 2026).
# Key:
# SW1 tumors [1] = test: Flow cytometric profiling of tumors and lymph nodes, SW1 tumors in C3H/HeN mice fed ± L-fucose and treated ± FTY720 (Table 1); assay type: in vivo, mouse
# Procedure: Tumors of SW1 or SM1 melanoma cells from […] or C57BL/6 mice, respectively) were digested using 1× tumor digest buffer (0.5 mg/mL Collagenase I, 0.5 mg/mL Collagenase IV, 0.25 mg/mL Hyalyronidase V, 0.1 mg/mL DNAse I in HBSS (Millipore Sigma (St. Louis, MO)). Tumors were homogenized using the Miltenyi MACs dissociator. Red blood cells were lysed using ACK lysis buffer (Life Technologies, (Grand Island, NY)). Tumor homogenate cells were counted using a standard hemocytometer.
# Total TILs were gated first to single cells (based on forward scatter height vs width, followed by side scatter height vs. width). Live cells were gated from the Zombie negative population from the population above. TILs were gated based on splenocyte size from a control spleen. Individual immune subpopulations were sub-gated from the total TIL population using the following staining criteria: CD3^+ for CD3^+ T cells; CD3^+/CD4^+/CD8^− for CD4^+T cells; CD3^+/CD4^−/CD8^+ for CD8^+ T cells, CD11c^+/CD11b^+ for DCs; either NK1.1 (for C57/BL6 mice) or DX5 (for C3H/HeJ) for NK cells; CD11b^+/GR1^+ for MDSC-like cells; and F4/80^+ for macrophages. Single-cell suspensions from tumor and spleen tissue were stained with Live/Dead Zombie NIR (Biolegend, (San Diego, CA)) at 1:1,000 in PBS for 20 min. Cell suspensions were spun down and stained with the following with antibodies at 0.5 μg/ml per antibody: APC anti-mouse CD3, Pacific Blue anti-mouse CD4, BV785 anti-mouse CD8, PerCP anti-mouse CD25, FITC anti-mouse F4/80, PeCy7 anti-mouse CD11c, PE anti-mouse NK1.1 or PE anti-mouse DX5, and PerCP-Cy5.5 anti-mouse CD11b. After staining, the cells were washed and fixed (2% formaldehyde), followed by another wash and flow cytometric analysis. The compensation controls were prepared using 0.5 μg/mL of each antibody with UltraComp eBeads, (ThermoFisher Scientific (Waltham, MA)). All samples were subject to flow cytometric profiling using a LSR Flow Cytometer (BD Biosciences (San Jose, CA)) and analysis as indicated using FlowJo software (BD Biosciences (San Jose, CA)).
# (§1) For all mouse models, 1×10^6 melanoma cells were injected subcutaneously in the right hind flanks of each mouse. […] This dosage is within ranges for dietary supplementation with L-fucose and other similar dietary sugars (e.g., D-mannose) in other rodent studies. When the tumors reached −2 cm^3, the animals were sacrificed, and the tumors either processed for flow cytometric profiling or for histological analysis as indicated.
# (§2) Control vs. L-fucose±FTY720 models (FIG. 2): SW1 or SM1 mouse melanoma cells were injected into syngeneic C3H/HeN (or NSG) female or C57BL/6 male mice, respectively. Cells were injected as follows: parental SW1 cells for FIG. 1A; parental SM1 cells for FIG. 1E; SW1 cells stably expressing either empty vector (EV) or mouse fucose kinase (mFuk) for FIG. 1L; and parental SW1 cells for FIG. 1M. FTY720 was administered at 20 μg every 2 days starting on Day 12, just prior to the initiation of LF, until endpoint.
# SW1 tumors [2] = test: Volumetric tumor growth, SW1 melanoma in C3H/HeN mice (incl. immunodepletion, FTY720, anti-PD1); assay type: in vivo, mouse; conditions: SW1 melanoma C3H mouse model treated with FTY720 (inhibition of lymph node egress)
# Excerpt: All animals were housed at the Vincent A. Stabile Research building animal facility at H. Lee Moffitt Cancer Center & Research Institute, which is fully accredited by the Association for Assessment and Accreditation of Laboratory Animal Care International (AAALAC, #434), and are managed in accordance with the Guide for the Care and Use of Laboratory Animals (“The Guide”), the Animal Welfare Regulations Title 9 Code of Federal Regulations Subchapter A, “Animal Welfare”, Parts 1-3 (AWR), the Public Health Service Policy on Humane Care and Use of Laboratory Animals (PHS Policy), and by the USF Institutional Animal Care and Use Committee's Principles and Procedures of Animal Care and Use (IACUC Principles). The experiments and protocols detailed in this study received institutional approval by the Moffitt IACUC (RIS00001625). Four-to-six-week-old female C3H/HeN and male C57BL6 mice were purchased from Charles Rivers Laboratories for the indicated experiments. Four-to-six-week-old male NSG mice from the Lau laboratory breeding colony were used for the indicated experiments. Power calculations were used to determine mouse cohort sizes to detect significant changes in tumor sizes. In general, 10 mice per indicated cohort to accommodate for incidental loss of mice due to issues beyond our control (e.g., incidental tumor ulceration that required exclusion from the study). Mouse tumor volumes were measured using length, width and depth divided by 2. At each experimental endpoint, mice were humanely euthanized using CO2 inhalation in accordance to the American Veterinary Medical Association guidelines.
# as §1
# Control vs. mFuk±L-fucose models (FIG. 1 & FIG. 8): SW1 or SM1 mouse melanoma cells were injected into syngeneic C3H/HeN (or NSG) female or C57BL/6 male mice, respectively, as follows: parental SW1 cells for FIG. 1A; parental SM1 cells for FIG. 1E; SW1 cells stably expressing either empty vector (EV) or mouse fucose kinase (mFuk) for FIG. 1L; and parental SW1 cells for FIG. 1M.
# as §2
# Immunodepletion mouse models (FIG. 1 & FIG. 8): Three days prior to tumor engraftment, PBS (control) or ˜300 μg α-CD4 (20 mg/kg, for immunodepletion, GK1.5, Bioxcell (West Lebanon, NH)) or 0-CD8 (20 mg/kg, for immunodepletion, 2.43, Bioxcell (West Lebanon, NH)) was administered by intraperitoneal injection into the indicated cohorts of mice. Injections of immunodepletion antibody or PBS were continued every 3-4 days until endpoint. Syngeneic recipient C3H/HeN female or C57BL/6 male mice were injected with SW1 or SM1 cells, respectively. […]
# HLA-DRB1 [3] = test: qRT-PCR and immunoblot of HLA-DRB1 mRNA and protein levels in melanoma cells; assay type: cell-based, human; conditions: 250 μM
# Procedure: Cells were lysed on ice in RIPA lysis buffer (25 mM Tris-HCl pH 7.6, 150 mM NaCl, 5 mM EDTA, 1% NP-40 or 1% Triton X-100, 1% sodium deoxycholate, 0.1% SDS in diH2O+protease and phosphatase inhibitors (ThermoFisher Scientific (Waltham, MA)), briefly sonicated, pelleted, and the resulting lysates were normalized by protein concentration using DC assay (BioRad Laboratories, (Hercules, CA)). The indicated samples were subjected to (12%) SDS-PAGE and immunoblot analysis using the indicated antibodies. Immunoblot imaging and analysis was performed using either an Odyssey FC scanner and ImageStudio (LiCor Biosciences, Lincoln, NE) or film.
# RNA from cells subjected to the indicated treatments was extracted using Gene Elute Mammalian Total RNA Extraction System (Millipore Sigma (St. Louis, MO)). RNA was reversed transcribed to cDNA using High-Capacity cDNA Reverse Transcription Kit (ThermoFisher Scientific (Waltham, MA)). qRT-PCR analysis was performed using FastStart Universal SYBR Green Master Mix (Rox) (Roche Diagnostics, (Indianapolis, IN)) using a BioRad CFX96 Real-time system (BioRad Laboratories, (Hercules, CA)). The qRT-PCR cycles used were as follows: 95° C. for 10 min, 35 cycles of 95° C. for 15 seconds, 55° C. for 60 seconds,
# and 72° C. for 30 seconds. Expression of the indicated genes was normalized to histone H3A expression. […]
# HLA-DRB1 [4] = test: Immunofluorescent subcellular localization of HLA-DRB1 in WM793 cells; assay type: cell-based, human; conditions: compared with vehicle (DMSO)
# Procedure: General fluorescent immunocytochemical staining protocol: Melanoma cells were grown on German glass coverslips (Electron Microscopy Services (Hatfield, PA)) and fixed in fixation buffer (4% formaldehyde, 2% sucrose in phosphate buffered saline (PBS) for 20 min at room temperature (RT). The coverslip-grown cells were subject to two 5-min standing washes in PBS prior to permeabilization in permeabilization buffer (0.4% Triton-X-100 and 0.4% IgG-free bovine serum albumin (BSA, Jackson ImmunoResearch Laboratories (Westgrove, PA) in PBS) for 20 min at RT. The coverslip-grown cells were next subject to 2 PBS washes and incubated with the indicated primary antibodies.
# fucosylated HLA-DRB1 = test: Lectin-mediated proximity ligation assay (L-PLA) of fucosylated HLA-DRB1 in WM793 cells; assay type: cell-based, human; conditions: melanoma cells
# Procedure: Coverslip-grown cells subjected to L-PLA were processed upfront as described in the fluorescent immunocytochemistry protocol detailed above, whereas FFPE tumor tissue sections were processed according to the fluorescent immunohistochemistry protocol detailed above. Both approaches used mouse-anti-HLA-DRB1 (applied at 0.2 μg/mL, ab215835, Abcam, Cambridge, UK), biotinylated AAL lectin (applied at 0.2 μg/mL, Vector Laboratories (Burlingame, CA)), on coverslips overnight in 4° C. The coverslip-grown cells were again washed twice with PBS followed and then incubated with phalloidin Alexafluor 488 (applied at 0.05 μg/mL, ThermoFisher Scientific (Waltham, MA) with goat anti-biotin (applied at 0.1 μg/mL, Vector Laboratories (Burlingame, CA)) for 2h in 4° C. Subsequent steps of the protocol were adapted from the DUOlink In Situ Green PLA kit's manufacturer's protocol (Millipore Sigma (St. Louis, MO)). PLA anti-goat MINUS and PLA anti-mouse PLUS probes were applied at 1:5 for 1 h at 37° C. The coverslips were washed twice with Wash Buffer A prior to ligation with 1:5 ligation buffer and 1:40 ligase in ddH2O for 30 min at 37° C. […] Microscopy images were acquired using a Keyence BZ-X710, and images were process and analyzed using FIJI (NIH).
# HLA-DRB1 [5] = test: Flow cytometric assessment of cell surface fucosylation and HLA-DRB1 in melanoma cells; assay type: cell-based, human; conditions: 250 μM, 72 h; flow cytometry
# Procedure: Indicated cells were treated for 72 h with DMSO, 250 μM fucosyltransferase inhibitor (FUTi) (Millipore Sigma (St. Louis, MO)), or 250 μM of L-fucose (Biosynth (Oak Terrace, IL)). After 72 h, cells were stained with 0.1 μM PKH26 (Millipore Sigma (St. Louis, MO)) prior to fixation in 4% formaldehyde solution. The cells were stained with anti-HLA-DRB1 and fluorescein AAL, or anti-human or anti-mouse PD-L1 overnight. The following day the cells were washed 3 times prior to adding AlexaFluor 594 donkey anti-rabbit. Cells were washed 3 times and then subject to flow cytometric analyses using a FACSCalibur (BD Biosciences (San Jose, CA)). Samples were analyzed using FlowJo analysis software (BD Biosciences (San Jose, CA)). Median values of DRB1 and AAL were normalized to PKH26 values and statistical analysis was performed using GraphPad Prism.
SMILES,"average # of CD4 stem central memory cells (SW1 tumors [1]; Day 28, tumors)","average # of CD8 stem central memory cells (SW1 tumors [1]; Day 28, tumors)","average # of CD8 effector memory cells (SW1 tumors [1]; Day 42, tumors)","average # of CD8 stem central memory cells (SW1 tumors [1]; Day 42, tumors)",intratumoral CD4+T central and effector memory subpopulations (SW1 tumors [1]; SW1 model ± FTY720),L-fuc-triggered tumor suppression (SW1 tumors [2]),HLA-DRB1 mRNA and protein levels (HLA-DRB1 [3]),subcellular localization of HLA-DRB1 (HLA-DRB1 [4]),cytoplasmic/membranous localization of endogenous fucosylated HLA-DRB1 (L-PLA) (fucosylated HLA-DRB1),cell surface HLA-DRB1 (HLA-DRB1 [5]),cell surface fucosylation (HLA-DRB1 [5])
"CCCCCCCCc1ccc(CCC(N)(CO)CO)cc1 [FTY720, reference compound]",0.87 per 10^6 cells,0.00 per 10^6 cells,220.02 per 10^6 cells,0.00 per 10^6 cells,abrogated,completely abrogated,,,,,
"CC(=O)OC1O[C@@H](C)[C@@H](OC(C)=O)[C@@H](OC(C)=O)[C@@H]1F (some centres unmarked) [FUTi, 2F-peracteyl-fucose, reference compound]",,,,,,,remained unchanged,"dimmer, more central, endoplasmic reticulum-co-localization of HLA-DRB1",lost,decreased,decreased
